Tested on: adult patients with Type 1 Diabetes Mellitus who have inadequate glycemic control with insulin therapy
Assay: inTandem 1 and inTandem 2 pooled double-blind placebo-controlled clinical studies, efficacy
Type: in vivo, human
Details: for 2-hour postprandial plasma glucose (mg/dL) LS Mean change (SE) / A1C (%) LS Mean change (SE) / Body weight (kg) LS Mean change (SE) / DDS2 (score) LS Mean change (SE) / DTSQ (score) LS Mean change (SE) / Fasting plasma glucose (mg/dL) LS Mean change (SE) / SBP (mmHg) LS Mean change (SE) / Time in range (%) LS Mean change (SE): 400 mg; for HbA1c change from Baseline, Week 24 Treatment Comparison, LS Mean / HbA1c change from Baseline, Week 52 Treatment Comparison, LS Mean: optimized insulin
[1] = 400 mg vs placebo, Baseline BMI ≥27 kg/m^2, Week 24
[2] = 400 mg vs placebo, Baseline BMI ≥27 kg/m^2, Week 52
[3] = Baseline BMI <27 kg/m^2, Week 24
[4] = Baseline BMI <27 kg/m^2, Week 52
[5] = Baseline BMI ≥27 kg/m^2, Week 24
[6] = Baseline BMI ≥27 kg/m^2, Week 52

CCOc1ccc(Cc2cc([C@@H]3O[C@H](SC)[C@@H](O)[C@H](O)[C@H]3O)ccc2Cl)cc1 [sotagliflozin, (2S,3R,4R,5S,6R)-2-(4-chloro-3-(4-ethoxybenzyl)phenyl)-6-(methylthio)tetrahydro-2H-pyran-3,4,5-triol]
2-hour postprandial plasma glucose (mg/dL) LS Mean Difference (SE) [1]: −21.7 (13.93) mg/dL | A1C (%) LS Mean Difference (SE) [1]: −0.45 (0.045) % | Body weight (kg) LS Mean Difference (SE) [1]: −3.32 (0.270) kg | DDS2 (score) LS Mean Difference (SE) [1]: −0.7 (0.13) score | DTSQ (score) LS Mean Difference (SE) [1]: 2.6 (0.35) score | Fasting plasma glucose (mg/dL) LS Mean Difference (SE) [1]: −25.0 (4.53) mg/dL | SBP (mmHg) LS Mean Difference (SE) [1]: −2.5 (0.87) mmHg | Time in range (%) LS Mean Difference (SE) [1]: 15.051 (2.8562) % | A1C (%) LS Mean Difference (SE) [2]: −0.38 (0.055) % | Body weight (kg) LS Mean Difference (SE) [2]: −4.46 (0.353) kg | SBP (mmHg) LS Mean Difference (SE) [2]: −3.6 (0.89) mmHg | 2-hour postprandial plasma glucose (mg/dL) LS Mean change (SE) [3]: −69.6 (17.34) mg/dL | A1C (%) LS Mean change (SE) [3]: −0.34 (0.048) % | Body weight (kg) LS Mean change (SE) [3]: −1.91 (0.181) kg | DDS2 (score) LS Mean change (SE) [3]: −0.4 (0.13) score | DTSQ (score) LS Mean change (SE) [3]: 1.5 (0.33) score | Fasting plasma glucose (mg/dL) LS Mean change (SE) [3]: −11.5 (4.32) mg/dL | SBP (mmHg) LS Mean change (SE) [3]: −3.4 (0.75) mmHg | Time in range (%) LS Mean change (SE) [3]: 4.164 (2.9683) % | A1C (%) LS Mean change (SE) [4]: −0.20 (0.057) % | Body weight (kg) LS Mean change (SE) [4]: −1.72 (0.238) kg | SBP (mmHg) LS Mean change (SE) [4]: −1.0 (0.81) mmHg | 2-hour postprandial plasma glucose (mg/dL) LS Mean change (SE) [5]: −39.5 (10.72) mg/dL | A1C (%) LS Mean change (SE) [5]: −0.50 (0.034) % | Body weight (kg) LS Mean change (SE) [5]: −2.98 (0.193) kg | DDS2 (score) LS Mean change (SE) [5]: −0.5 (0.10) score | DTSQ (score) LS Mean change (SE) [5]: 2.2 (0.26) score | Fasting plasma glucose (mg/dL) LS Mean change (SE) [5]: −18.6 (3.28) mg/dL | SBP (mmHg) LS Mean change (SE) [5]: −4.0 (0.64) mmHg | Time in range (%) LS Mean change (SE) [5]: 13.133 (2.0244) % | A1C (%) LS Mean change (SE) [6]: −0.38 (0.040) % | Body weight (kg) LS Mean change (SE) [6]: −3.61 (0.249) kg | SBP (mmHg) LS Mean change (SE) [6]: −3.2 (0.65) mmHg | Weight, Percent Change from Baseline at Week 24, Treatment Comparison vs. PBO LS Mean (SE) (SOTA 200 mg vs PBO, Week 24): −2.17 (0.188), p < 0.001% | HbA1c change from Baseline, Week 24 Treatment Comparison, LS Mean (SOTA 200 mg vs PBO, Week 24): −0.36% | No Weight Gain at Week 52, HbA1c <7.0%: Absolute difference in % (SOTA vs. PBO) (SOTA 200 mg vs PBO, Week 52): 12.6% | No Weight Gain at Week 52, reduction in HbA1c ≥0.5%: Absolute difference in % (SOTA vs. PBO) (SOTA 200 mg vs PBO, Week 52): 14.9% | Weight, Percent Change from Baseline at Week 52, Treatment Comparison vs. PBO LS Mean (SE) (SOTA 200 mg vs PBO, Week 52): −3.21 (0.291), p < 0.001% | HbA1c change from Baseline, Week 52 Treatment Comparison, LS Mean (SOTA 200 mg vs PBO, Week 52): −0.23% | Weight, Percent Change (%) from Baseline at Week 24, LS Mean (SE) (SOTA 200 mg, Week 24): −1.70 (0.137), p < 0.001% | No Weight Gain at Week 52: Percentage HbA1c <7.0% (SOTA 200 mg, Week 52): 21.8% | No Weight Gain at Week 52: Percentage with absolute reduction in HbA1c ≥0.5% (SOTA 200 mg, Week 52): 23.7% | Weight, Percent Change (%) from Baseline at Week 52, LS Mean (SE) (SOTA 200 mg, Week 52): −2.31 (0.208), p < 0.001% | Weight, Percent Change from Baseline at Week 24, Treatment Comparison vs. PBO LS Mean (SE) (SOTA 400 mg vs PBO, Week 24): −3.02 (0.188), p < 0.001% | HbA1c change from Baseline, Week 24 Treatment Comparison, LS Mean (SOTA 400 mg vs PBO, Week 24): −0.38% | No Weight Gain at Week 52, HbA1c <7.0%: Absolute difference in % (SOTA vs. PBO) (SOTA 400 mg vs PBO, Week 52): 17.0% | No Weight Gain at Week 52, reduction in HbA1c ≥0.5%: Absolute difference in % (SOTA vs. PBO) (SOTA 400 mg vs PBO, Week 52): 20.0% | Weight, Percent Change from Baseline at Week 52, Treatment Comparison vs. PBO LS Mean (SE) (SOTA 400 mg vs PBO, Week 52): −4.24 (0.291), p < 0.001% | HbA1c change from Baseline, Week 52 Treatment Comparison, LS Mean (SOTA 400 mg vs PBO, Week 52): −0.32% | Weight, Percent Change (%) from Baseline at Week 24, LS Mean (SE) (SOTA 400 mg, Week 24): −2.55 (0.137), p < 0.001% | No Weight Gain at Week 52: Percentage HbA1c <7.0% (SOTA 400 mg, Week 52): 26.1% | No Weight Gain at Week 52: Percentage with absolute reduction in HbA1c ≥0.5% (SOTA 400 mg, Week 52): 28.8% | Weight, Percent Change (%) from Baseline at Week 52, LS Mean (SE) (SOTA 400 mg, Week 52): −3.33 (0.209), p < 0.001% | efficacy of sotagliflozin versus placebo by BMI subgroup (Week 24, BMI ≥27 kg/m^2 subgroups, A1C, body weight, time in range, DTSQ, DDS2): more pronounced | A1C levels compared to placebo (primary endpoint) (both doses, after core treatment period and long-term extension period): statistically significant lower A1C levels

Reference: patent US20240226125A1, “USE OF SOTAGLIFLOZIN FOR THE TREATMENT OF PATIENTS WITH TYPE 1 DIABETES MELLITUS” (priority 2019, published 2024)
